Reference: patent US20240110202A1, “Advanced Cell-Permeable Peptide Carriers” (MUSC FOUNDATION FOR RESEARCH DEVELOPMENT, priority 2020, published 2024)
“Also recorded” adds a separate entry of the source.

How the values were obtained:
[1] = tested on: CAL 27 cells; test: Quantitative siRNA cell uptake assay; format: cell-based, human; conditions: DY547-siCIP2A, 2 hours post-treatment; for siRNA delivery into cells (internalization) compared to 599: 50:1 Peptide:siRNA molar (12.5 N/P) ratio
Protocol: CAL 27 cells, grown to a confluency of 60% on a 24-well plate, were rinsed three times with Opti-MEM I Reduced Serum Media (Opti-MEM; Thermo Fisher Scientific). […] After complexation, the total volume was brought to 600 μL with Opti-MEM, after which the cells were incubated with 500 μL of peptide-siCIP2A complexes for 2 hours at 37° C. with 5% CO2. As an additional control, the cells were also transfected with 50 pmol of DY547-siCIP2A using Lipofectamine® 3000 (Thermo Fisher Scientific), according to the manufacturer's instructions. After treatment, the cells were rinsed three times with PBS, before being trypsinized for 10 minutes at 37° C., followed by centrifugation for 5 minutes at 1,000×g at 4° C. The cells were then washed with ice cold phosphate-buffered saline (PBS) and centrifuged again for 5 minutes at 1,000×g at 4° C. Next, the cells were lysed in 250 μl ice cold 0.1 M NaOH. The cell lysates were centrifuged at 4° C. for 5 minutes at 10,000×g to remove cell debris. Afterwards, 100 μL of each sample was transferred to a black 96-well plate to measure fluorescence at 530/590 nm using a BioTek (Winooski, VT) Synergy HT plate reader. Fluorescence measurements were converted to the amount of internalized siRNAs using a standard curve that was generated per experiment using known concentrations of DY547-siCIP2A ranging from 0-100 fmol/μl. Subsequently, the amount of internalized siRNA was normalized to the amount of protein, which was quantitated using the Pierce BCA Protein Assay Kit (Thermo Fisher Scientific).

[2] = Physicochemical measurements (Zetasizer) of peptide-siCIP2A complexes; conditions: complex with siCIP2A at 50:1 Peptide:siRNA molar (12.5 N/P) ratio in water; for Particle Size: mean hydrodynamic size, dynamic light scattering, ± SD; for Particle Size / Zeta Potential: three experiments; for Zeta Potential: mean ± SD
[3] = tested on: RNase A; test: RNase protection assay; format: biochemical; conditions: siCIP2A, 50:1, 1 hour at 37° C.
Protocol: (§1) Afterwards, complexes were either treated or untreated with 0.18 μg of RNase A (Thermo Fisher Scientific) for 1 hour at 37° C., followed by denaturation with 4% SDS. Next, the samples were electrophoresed on a 4% agarose gel and resulting siCIP2A bands were imaged and quantified, as described above.

[4] = Serum protection assay; format: in vitro ADME; conditions: siCIP2A, 50:1, 50% human serum, 1 hour at 37° C.
Protocol: as §1, with “50% human serum (final concentration; VWR, Radnor, PA)” for “0.18 μg of RNase A (Thermo Fisher Scientific)”

[5] = tested on: siCIP2A; test: siRNA release assay (heparin competition); conditions: 50:1 complexes; for siRNA release compared to 599: 0-10 μg heparin, 30 minutes at RT
Protocol: Afterwards complexes were incubated with either 0, 0.1, 0.5, 1.0, 2.0, 5.0 or 10 μg heparin (Millipore Sigma, St. Louis, MO) for 30 minutes at RT. The samples were then electrophoresed on a 4% agarose gel and resulting siCIP2A bands were imaged and quantified, as described above.

[6] = tested on: CIP2A mRNA; test: Dual peptide siRNA delivery system with GE11R9, CIP2A knockdown; format: cell-based, human; conditions: CAL 27 cells
[7] = tested on: siCIP2A; test: siRNA binding assay (gel-shift); conditions: 10:1 Peptide:siRNA molar ratio
Source text: Afterwards, the samples were electrophoresed on a 4% agarose gel and stained with ethidium bromide. Free siCIP2A was used as a normalizing control. An Ultra-Low Range DNA Ladder (Thermo Fisher Scientific, Waltham, MA) was used as a MW marker. Resulting siCIP2A bands were imaged and quantified using a G:Box Chemi XX6 and GeneSys image capture software (Syngene, Frederick, MD), respectively.

[8] = tested on: CIP2A mRNA; test: CIP2A silencing in cells, real-time PCR; format: cell-based, human; conditions: CAL 27 cells, 50:1, 48 hours
Protocol: CAL 27 cells, grown to a confluency of 60% on 24-well plates, were rinsed three times with Opti-MEM. […] Afterwards, the complexes were added to the cells at a siRNA concentration of 125 nM and incubated for 4 hours at 37° C. with 5% CO2, prior to adjusting the siRNA and FBS concentrations to 100 nM and 10%, respectively, with the addition of 50% FBS/Opti-MEM media. 48 hours post-treatment, the total RNA or protein was harvested for subsequent real-time PCR and Western blot analyses.
Total RNA was harvested using the RNeasy Mini Kit (Qiagen, Germantown, MD). RNA was then reverse transcribed using the High-Capacity cDNA Reverse Transcription Kit (Thermo Fisher Scientific) in a Bio-Rad (Hercules, CA) T100 Thermal Cycler. Next, quantitative real-time PCR was performed in an Applied Biosystems™ StepOnePlus™ Real-Time PCR machine (Thermo Fisher Scientific) using the TaqMan™ Fast Advanced Master Mix (Thermo Fisher Scientific) and predesigned TaqMan™ Gene Expression Assays (Thermo Fisher Scientific) for CIP2A (Hs00405413_m1) and 18S (4319413E), according to the manufacturer's instructions.

Chain of RNase A (P61823 27-150): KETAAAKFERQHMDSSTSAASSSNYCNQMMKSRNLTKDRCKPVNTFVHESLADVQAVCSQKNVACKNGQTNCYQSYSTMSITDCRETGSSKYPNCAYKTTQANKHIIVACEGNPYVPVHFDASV

In the case of “GlfeaieGfienGweGmidGwyGGGGrrrrrrrrrk [All-D]”, the “siRNA delivery into cells (internalization) compared to 599” value [1] is reported as “on average lower siRNA uptake abilities in comparison to 599”, the “PDI (Polydispersity index)” value [2] is reported as 0.366 and the “Particle Size” value [2] is reported as 185.9 ± 72.0 nm. For the same substance, the “Zeta Potential” value [2] was 28.3 ± 7.7 mV, the “ability to protect siRNAs in the presence of RNase A, compared to 599” value [3] was “did not differ from 599” and the “ability to protect siRNAs in the presence of serum, compared to 599” value [4] was “did not differ from 599”. For the same substance, the “siRNA release compared to 599” value [5] was “poor siRNA release” and the “complexed siRNAs (maximally) released” value ([5]; increasing heparin, maximal at 4-fold excess and higher (≥2 μg; ≥120 pmol) of heparin) was ~70%.

With “YHWYGYTPQNVIGGGGRRRRRRRRRK [GE11R9, EGFR-targeting derivative of GE11 peptide with a stretch of densely packed cationic amino acids]” the “CIP2A knockdown with GE11R9 as compared to scrambled control peptide GE11SCR9” value [6] was “shown to be specific”.

With “GlfeaieGfienGweGmidGwyGGGGRRRRRRRRRK [INF7D]” the “binding improvement relative to 599” value [7] was ~20%, the “siRNA delivery into cells compared to 599” value ([1]; 30:1 Peptide:siRNA molar (7.5 N/P) ratio) was “dramatic and significant reduction in siRNA delivery into cells” and the “siRNA delivery into cells (internalization) compared to 599” value [1] was “significantly decreased levels of siRNA cell internalization; also recorded: adversely affect the intracellular delivery of siRNAs; also recorded: on average lower siRNA uptake abilities in comparison to 599; also recorded: poorest siRNA cell uptake”. For the same substance, the “PDI (Polydispersity index)” value [2] was 0.296, the “Particle Size” value [2] was 190.4 ± 94.6 nm and the “Zeta Potential” value [2] was 28.2 ± 10.2 mV. For the same substance, the “ability to protect siRNAs in the presence of serum, compared to 599” value [4] was “greatest instability in serum”, the “siRNA release compared to 599” value [5] was “No statistical differences in siRNA release” and the “gene silencing in comparison to 599 / among the peptide variants” value [8] was “weakest gene silencing effect among the peptide variants”.
